Measured values: US20230263766A1, “CANNABINOID-CONTAINING FORMULATIONS FOR PARKINSONIAN MOVEMENT DISORDERS” (GBS Global BioPharma, Inc., priority 2021, published 2023)

What was measured:
[1] = tested on: Cath.a cells; assay: In vitro neuroprotection assay (MPTP/MPP+ cytotoxicity, MTT cell viability); format: cell-based, mouse
Description: (§1) Cell lines used were from ATCC. Cath.a cells (sp. = mouse, cat# CRL-11179, ATCC, Manassas, Virginia, US), a CNS catecholaminergic cell line, were cultured according to ATCC instructions and were induced to CAD differentiated status by serum deprivation (0.5% FBS culture for 36 h) prior to experiments as described (Qi et al., 1997, Neurosci, 17, 1217-25). PC12 (sp. = rat, ATCC #CRL-1721) were cultured in RPMI 10% FBS. PC12 differentiation used Minimal Essential M medium containing 1% HS and 0.5% FBS, then the cells were treated with 100 ng/ml NGF, 100 ng/ml basic fibroblast growth factor (bFGF), and serum-starved media containing 2 mg/ml BSA for 2 days (Joen et al., 2010. Synapse, 64, pgs 765-72).
Neuroprotective effects were assessed based on the ability of both individual compounds and mixtures of compounds to protect against neuronal cell death induced by 1-methyl-4-phenylpyridinium (MPP+) in the 1-methyl-4-phenyl-1,2,3,6-tetrahydropyridine (MPTP)-based selective cytotoxicity assay (Arshad et al., 2014, Acta Biochim Biophys Sin (Shanghai), 46, 22-30). MPP+ is an active metabolite of MPTP that is known to cause human Parkinsonism after injection. […] Cell viability was assessed 24 h after exposure to MPP, which is […] after exposure to the tested compound or compound mixture. […]

[2] = tested on: differentiated PC12 cells; assay: In vitro dopamine-release assay (Dopamine ELISA); format: cell-based, rat; details: 10 µM of each compound; 30 mins; normalized to PMA/Ionomycin control; mean +/- SD
Description: as §1
In parallel with the neuroprotection assays, cannabinoid and terpene compounds were tested alone and in mixtures to determine their effects on dopamine release from differentiated PC12 cells. PC12 cells were differentiated as in (Joen et al., 2010. Synapse, 64, pgs 765-72; Hu et al., 2018, Int J Mol Med, 41, 195-201). Supernatant samples were collected from 3 replicate wells 30 mins after application of PMA/Ionomycin (positive control) or the indicated compounds, and dopamine was measured in the medium using the Dopamine ELISA Kit #KA1887 from Abnova (Abnova, California, US) according to manufacturer’s instructions. […]

[3] = tested on: zebrafish larvae; assay: Validation of the larval zebrafish OHDA model; format: in vivo
Description: All compounds were diluted in 100% methanol (MeOH) and experiments were performed in a HEPES buffered E3 (HE3) medium (5 mM NaCl, 0.17 mM KCl, 0.33 mM CaCl2-2H2O, 0.33 mM MgSO4-7H2O, 10 mM HEPES, pH 7.2). Individual 120 hours post fertilization (hpf) larval zebrafish were transferred to a 48-well microtiter plate in 500 µL of HE3 media. Larvae were acclimated for at least one hour in a lighted 28.5° C. incubator (photon flux: 3-5 µmol s-1 m2) prior to experimentation and larval behavior was analyzed using DanioVision larval tracking systems with EthoVisionXT14/15 software (Noldus Information Technology Inc., Virginia, USA). Distance traveled was measured using dynamic subtraction at 28.5° C. over 120 minutes with the first 90 minutes under lighted conditions (15 µmol m-2 s-1), followed by alternating 5-minute dark/light cycles. Each larvae represents an independent measurement. […] 12 larvae were used in each experimental condition, and at least 2 replicates of each concentration were performed.
Larvae were exposed to varying concentrations of 6-hydroxydopamine (OHDA) from 48-120 hours post fertilization (hpf). 15 dechorionated larvae were transferred in 5 mL of HE3 to each well of a six-well plate. The 5 mL exposure media was replaced daily, and ascorbic acid/saline buffer (used to resuspend OHDA) was used as a vehicle control. Larvae were then loaded into 48-well microtiter plate in 500 µL of HE3 media as described above.
In addition to distance travelled, activity was measured as a percentage change in pixel density during data acquisition. […] The frequency with which larvae switched between activity states and the cumulative duration of time spent in each activity state was then measured. Metrics were captured in 1 min bins, and the average over 90 minutes was used to calculate each metric in each activity state. For frequency calculations, the number of times larvae switched between activity states (high, moderate, and low) was calculated (termed Total Frequency). The cumulative amount of time spent in the high and moderate activity states combined (termed Cumulative Duration) was averaged over 90 minutes and measured as a percentage.

Compound: CCCCCc1cc(O)c2c(c1)OC(C)(CCC=C(C)C)C=C2 (centres unmarked) [CBC, Cannabichromene]
- neuroprotective effect of individual compounds ([1]; 10 µM, MPTP/MPP+ induced apoptosis): all of the individual cannabinoids except CBC displayed some neuroprotective effects

Compound: C=C(C)[C@@H]1CCC(C)=C[C@H]1c1c(O)cc(CCCCC)cc1O [CBD, Cannabidiol]
- effect of adding a major cannabinoid to MIX-1, MIX-2, MIX-3 on cell survival ([1]; 10 µM each, equimolar): increased cell survival in all three mixtures
- DOPA release [2]: 6.0 +/- 0.3%

Compound: NCCc1cc(O)c(O)cc1O [OHDA, 6-hydroxydopamine]
- startle response ([3]; 150 µM OHDA): not impacting the startle response
- maximum response to the light/dark transition (startle response) ([3]; 225 µM OHDA): non-significant increase in the maximum response to the light/dark transition
- baseline activity during initial 90-minute period in the light ([3]; OHDA exposure 48-120 hpf): concentration-dependent decrease in the baseline activity
- fraction of time in high activity ([3]; OHDA treated larvae): 1%
- fraction of time in moderate activity ([3]; OHDA treated larvae): 5%
- fraction of time in the inactive state ([3]; OHDA treated larvae): ~ 90%
- reduction in activity state transitions for all three states ([3]; OHDA treatment vs untreated): 50-60%

Compound: CCCCCc1cc(O)c2c(c1)OC(C)(C)c1ccc(C)cc1-2 [CBN, Cannabinol]
- DOPA release [2]: 8.1 +/- 0.4%
